Measured values: BindingDB's records for doi:10.3109/14756366.2011.643302 (Centre de Recherche de Gif, 2013)
pIC50: −log10 of the molar value.

Key:
[1] = biological target: T1, Protein farnesyltransferase subunit beta/geranylgeranyltransferase type-1 subunit alpha (Saccharomyces cerevisiae (strain ATCC 204508 / S288c), UniProt P22007+P29703); assay: Yeast FTase Assay; details: pH 7.5
T1 sequence (P22007 whole entry): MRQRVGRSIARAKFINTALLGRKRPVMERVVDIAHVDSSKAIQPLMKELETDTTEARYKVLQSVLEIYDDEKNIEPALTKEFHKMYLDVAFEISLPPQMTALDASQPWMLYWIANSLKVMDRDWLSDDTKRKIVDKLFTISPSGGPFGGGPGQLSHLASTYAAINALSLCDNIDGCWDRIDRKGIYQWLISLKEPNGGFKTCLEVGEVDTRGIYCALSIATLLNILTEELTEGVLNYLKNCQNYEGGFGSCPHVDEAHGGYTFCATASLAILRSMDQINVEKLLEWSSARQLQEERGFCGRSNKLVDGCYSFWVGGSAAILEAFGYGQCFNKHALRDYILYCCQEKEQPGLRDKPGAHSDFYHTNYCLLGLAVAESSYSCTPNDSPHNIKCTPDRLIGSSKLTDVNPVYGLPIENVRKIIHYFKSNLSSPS
T1 sequence (P29703 whole entry): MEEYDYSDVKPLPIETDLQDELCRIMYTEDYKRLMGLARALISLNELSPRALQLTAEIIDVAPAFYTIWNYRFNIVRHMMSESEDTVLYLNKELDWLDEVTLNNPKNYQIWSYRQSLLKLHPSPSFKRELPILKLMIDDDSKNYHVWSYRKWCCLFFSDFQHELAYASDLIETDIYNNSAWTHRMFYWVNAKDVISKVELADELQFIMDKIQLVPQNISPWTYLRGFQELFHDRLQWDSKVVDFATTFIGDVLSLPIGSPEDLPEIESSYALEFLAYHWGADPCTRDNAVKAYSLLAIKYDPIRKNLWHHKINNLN
Experimental: Assays were realized on 96-well plates, prepared with Biomek NKMC and Biomek 3000 from Beckman Coulter and read on Wallac Victor fluorimeter from Perkin-Elmer. Per well, 20 μL of farnesyl pyrophosphate (10 μM) was added to 180 μL of a solution containing 2 μL of varied concentrations of potential inhibitors (dissolved in DMSO) and 178 μL of a solution composed by 0.1 mL of partially purified recombinant yeast FTase (2.2 mg/ mL) and 7.0 mL of dansyl-GCVLS peptide (in the following buffer: 5.8 mM DTT, 6 mM MgCl2, 12 μM ZnCl2 and 0.09% (w/v) CHAPS, 53 mM Tris/HCl, pH 7.5). Then the fluorescence development was recorded for 15 min(0.7 second per well, 20 repeats) at 30°C with an excitation filter at 340 nm and an emission filter at 486 nm. Each measurement was realized twice as duplicate ortriplicate.

[2] = biological target: T2, Protein farnesyltransferase alpha subunit/subunit beta (Trypanosoma brucei brucei, UniProt Q9NC76+Q9NC77); assay: T. brucei FTase Assay
T2 sequence (Q9NC77 whole entry): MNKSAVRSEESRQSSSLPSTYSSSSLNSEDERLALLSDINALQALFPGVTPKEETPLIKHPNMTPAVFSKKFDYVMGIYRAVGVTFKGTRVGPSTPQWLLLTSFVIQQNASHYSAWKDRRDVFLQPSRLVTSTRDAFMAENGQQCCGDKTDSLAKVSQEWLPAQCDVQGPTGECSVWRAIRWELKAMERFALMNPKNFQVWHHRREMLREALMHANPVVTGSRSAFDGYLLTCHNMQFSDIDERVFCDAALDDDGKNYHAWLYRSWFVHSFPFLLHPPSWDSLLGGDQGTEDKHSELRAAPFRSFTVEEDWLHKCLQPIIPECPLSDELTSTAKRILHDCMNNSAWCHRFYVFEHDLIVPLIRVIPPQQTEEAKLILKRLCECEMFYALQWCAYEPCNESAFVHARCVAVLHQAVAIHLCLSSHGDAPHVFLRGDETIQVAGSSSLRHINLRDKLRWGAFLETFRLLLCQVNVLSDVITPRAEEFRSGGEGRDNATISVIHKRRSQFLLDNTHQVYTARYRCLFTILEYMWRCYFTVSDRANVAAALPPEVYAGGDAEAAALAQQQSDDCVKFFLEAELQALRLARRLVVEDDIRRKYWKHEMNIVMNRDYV
T2 sequence (Q9NC76 whole entry): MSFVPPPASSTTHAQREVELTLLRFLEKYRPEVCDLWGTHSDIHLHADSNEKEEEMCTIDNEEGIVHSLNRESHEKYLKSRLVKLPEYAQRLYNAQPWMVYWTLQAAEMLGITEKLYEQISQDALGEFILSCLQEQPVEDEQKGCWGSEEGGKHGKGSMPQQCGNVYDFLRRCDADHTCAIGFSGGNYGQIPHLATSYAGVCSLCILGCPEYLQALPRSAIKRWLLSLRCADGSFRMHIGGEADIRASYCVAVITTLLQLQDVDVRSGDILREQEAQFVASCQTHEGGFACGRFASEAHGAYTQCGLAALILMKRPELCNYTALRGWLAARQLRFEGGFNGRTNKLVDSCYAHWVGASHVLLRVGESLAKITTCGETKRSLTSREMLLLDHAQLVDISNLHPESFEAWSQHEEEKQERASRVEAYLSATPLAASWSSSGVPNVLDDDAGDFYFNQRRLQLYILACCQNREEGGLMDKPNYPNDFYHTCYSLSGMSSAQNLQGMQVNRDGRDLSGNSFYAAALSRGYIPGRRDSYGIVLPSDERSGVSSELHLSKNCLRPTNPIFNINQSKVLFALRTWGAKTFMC
Experimental: Assays were realized on 96-well plates, as described for human FTase with the dansylated peptide Dansyl-GCAIM and the solution contains 15 μL of partially purified Tb-FTase (1.0 mg/mL) in 1 mL peptide solution.

[3] = biological target: Protein farnesyltransferase subunit beta/geranylgeranyltransferase type-1 subunit alpha (Homo sapiens, UniProt P49354+P49356); assay: Human FTase Assay
Experimental: Assays were realized on 96-well plates, as described for yeast FTase but octyl-D-glucopyranoside (0.18%) was used instead of CHAPS and the solution contains 5 μLof partially purified human FTase (1.5 mg/mL)7 in 1 mL peptide solution.

SMILES | pIC50 [1] | pIC50 [2] | pIC50 [3]
CSCC[C@H](NC(=O)c1ccc(NC[C@@H](N)CS)cc1-c1ccccc1)C(=O)O [2-{[5-((R)-2-Amino-3-mercapto-propylamino)-biphenyl-2-carbonyl]-amino}-4-methylsulfanyl-butyric acid] | 9.11 | 8.00 | 
CC(C)Sc1sc(C(=O)O)c(-c2cccc(C(F)(F)F)c2)c1C#N [3-(3-(Trifluoromethyl)phenyl)-4-cyano-5-(isopropylthio)thiophene-2-carboxylic acid (1h)] | 5.80 | 4.72 | 4.47
CC(C)Sc1sc(C(=O)O)c(-c2ccccc2Cl)c1C#N [3-(2-Chlorophenyl)-4-cyano-5-(isopropylthio)thiophene-2-carboxylic acid (1c)] | 5.85 | 4.43 | < 4.30
CC(C)Sc1sc(C(=O)O)c(-c2ccccc2)c1C#N [3-Phenyl-4-cyano-5-(isopropylthio)thiophene-2-carboxylic acid (1s)] | 6.21 | 4.38 | 4.47
CC(C)Sc1sc(C(=O)O)c(-c2ccc(-c3ccccc3)cc2)c1C#N [3-(4-Biphenyl)-4-cyano-5-(isopropylthio)thiophene-2-carboxylic acid (1z)] | 5.57 | 4.49 | 5.26
CC(C)Sc1sc(C(=O)O)c(-c2cccc3oc4ccccc4c23)c1C#N [3-(1-Dibenzofuranyl)-4-cyano-5-(isopropylthio)thiophene-2-carboxylic acid (1gg)] | 6.00 | 5.48 | 4.82
CC(C)Sc1sc(C(=O)O)c(-c2ccc(F)cc2)c1C#N [3-(4-Fluorophenyl)-4-cyano-5-(isopropylthio)thiophene-2-carboxylic acid (1d)] | 6.57 | 4.54 | 4.70
COc1ccc(-c2c(C(=O)O)sc(SC(C)C)c2C#N)cc1 [3-(4-Methoxyphenyl)-4-cyano-5-(isopropylthio)thiophene-2-carboxylic acid (1j)] | 6.60 | 5.07 | 
COc1cccc(-c2c(C(=O)O)sc(SC(C)C)c2C#N)c1 [3-(3-Methoxyphenyl)-4-cyano-5-(isopropylthio)thiophene-2-carboxylic acid (1k)] | 5.80 | 4.74 | 
Cc1ccccc1-c1c(C(=O)O)sc(SC(C)C)c1C#N [3-(2-Tolyl)-4-cyano-5-(isopropylthio)thiophene-2-carboxylic acid (1v)] | 5.51 | < 4.30 | < 4.30
COc1ccccc1-c1c(C(=O)O)sc(SC(C)C)c1C#N [3-(2-Methoxyphenyl)-4-cyano-5-(isopropylthio)thiophene-2-carboxylic acid (1l)] | 5.01 | 4.43 | < 4.30
CC(C)Sc1sc(C(=O)O)c(-c2cccc3ccccc23)c1C#N [3-(1-Naphthyl)-4-cyano-5-(isopropylthio)thiophene-2-carboxylic acid (1x)] | 5.96 | 4.98 | 4.49
CC(C)Sc1sc(C(=O)O)c(-c2cccc(-c3ccccc3)c2)c1C#N [3-(3-Biphenyl)-4-cyano-5-(isopropylthio)thiophene-2-carboxylic acid (1aa)] | 6.19 | 5.27 | 5.48
Cc1cccc(-c2c(C(=O)O)sc(SC(C)C)c2C#N)c1 [3-(3-Tolyl)-4-cyano-5-(isopropylthio)thiophene-2-carboxylic acid (1u)] | 5.85 | 4.47 | 4.80
CC(C)Sc1sc(C(=O)O)c(-c2ccc(C(F)(F)F)cc2)c1C#N [3-(4-(Trifluoromethyl)phenyl)-4-cyano-5-(isopropylthio)thiophene-2-carboxylic acid (1g)] | 6.24 |  | 
Cc1ccc(-c2c(C(=O)O)sc(SC(C)C)c2C#N)cc1 [3-(4-Tolyl)-4-cyano-5-(isopropylthio)thiophene-2-carboxylic acid (1t)] | 6.72 | 4.77 | 4.68
CC(C)Sc1sc(C(=O)O)c(-c2ccc(Cl)cc2)c1C#N [3-(4-Chlorophenyl)-4-cyano-5-(isopropylthio)thiophene-2-carboxylic acid (1a)] | 6.96 | 4.97 | 
CC(C)Sc1sc(C(=O)O)c(-c2ccc3ccccc3c2)c1C#N [3-(2-Naphthyl)-4-cyano-5-(isopropylthio)thiophene-2-carboxylic acid (1y)] | 6.49 | 5.01 | 5.32
CC(C)Sc1sc(C(=O)O)c(-c2ccccc2F)c1C#N [3-(2-Fluorophenyl)-4-cyano-5-(isopropylthio)thiophene-2-carboxylic acid (1f)] | 5.89 | 4.34 | < 4.30
CC(C)Sc1sc(C(=O)O)c(-c2cccc(F)c2)c1C#N [3-(3-Fluorophenyl)-4-cyano-5-(isopropylthio)thiophene-2-carboxylic acid (1e)] | 6.34 | 4.49 | 4.64
CC(C)Sc1sc(C(=O)O)c(-c2cccc(Cl)c2)c1C#N [3-(3-Chlorophenyl)-4-cyano-5-(isopropylthio)thiophene-2-carboxylic acid (1b)] | 5.89 | 4.84 | 4.32
COC(=O)c1ccc(-c2c(C(=O)O)sc(SC(C)C)c2C#N)cc1 [3-(4-(Methoxycarbonyl)phenyl)-4-cyano-5-(isopropylthio)thiophene-2-carboxylic acid (1p)] | 7.07 | 4.85 | 4.89
COC(=O)c1cccc(-c2c(C(=O)O)sc(SC(C)C)c2C#N)c1 [3-(3-(Methoxycarbonyl)phenyl)-4-cyano-5-(isopropylthio)thiophene-2-carboxylic acid (1q)] | 6.21 | 5.16 | 5.15
